The values that follow come from patent publication US4209439A, “Stabilization of vinyl resins” (priority 1977, dated 1980).

Several values for one entry are separate records, joined by “and”; a condition that tells them apart may be missing. Equal values may be shown once.

Type in all cases: physicochemical
The nature of series [1]: migration of stabiliser from PVC bottles into water at 50° C. To be noted: water 50° C. Here is the method:
2.2--Study of the migration
The migration or the extractability of the stabiliser from the PVC compound under the effect of various liquids (and particularly water) stored in a plastic container is of essential importance for the use of these stabilisers in the field of food packagings.
(§1) The technique as regards extraction was the following: using the formula which is given below, a batch of bottles (volume 1 liter, diameter 70 mm, height.perspectiveto.230 mm) was prepared, the said bottles being filled with a liquid simulating the foods. […] The migration of the stabiliser was judged by dosage of the pyridine present in the extractum, using the dosage method which is later described. This pyridine obviously represents the oxidised form of the extracted 1,4-dihydropyridine.
The investigation was particularly developed for water at 50° C. over a period of 2 months, because it represents the important problem regarding the packaging of mineral waters.
Formula for the manufacture of bottles
The S L 2016 is a solution of zinc 2-ethyl hexanoate in a mixture of aromatic hydrocarbons boiling from 158° to 184° C.
(§2) The stabilisers are measured out in the form of their oxidation product (pyridine).
(§3) The oxidation is made quantitative by adding a few drops of iodine to the solution. The latter is then extracted with chloroform and the chloroform is evaporated to a small residual volume. The solution obtained is then subjected to thin-film chromatography, by comparison with solutions of known concentration of the desired pyridines.
(§4) The sensitivity threshold of this technique is 5 μg/liter.

Series [2] is described as follows: migration of stabiliser from PVC into solutions or solvents simulating foods at 50° C. As to the method: as §1, §2, §3, §4
For justifying the possibility of using the dihydropyridines (I) having a radical R comprising from 9 to 22 carbon atoms in applications concerned with food packaging, other than those applications relating to mineral waters, the extractability of the dihydropyridines by several solutions or solvents having the following composition, by weight, was investigated:
(a) water-sodium chloride: 97-3
(b) water-saccharose: 90-10
(c) water-sodium chloride-acetic acid: 98.5-0.5-1
(d) water-citric acid (solution at pH=5): 98-2
(e) water-acetic acid: 97-3
(f) water-acetic acid: 90-10
(h) water-acetic acid: 50-50

Series [3] is described as follows: sublimation at 160° C. for 6 hours under nitrogen. The conditions noted are these: for % of sublimed product: 160° C., 6 hours, nitrogen; for sublimation: of the quantity of product being used. Here is the method: A test sample of about 130 mg of the product to be investigated is introduced into a 100 cc beaker. The latter is placed in a 250 cc reactor. The temperature is kept at 160° C. by means of a thermostatically controlled oil bath for 6 hours, the atmosphere of the reactor being inert (nitrogen) in order to avoid the oxidation of the 1,4-dihydropyridine into pyridine, which is more sublimable.
For each dihydropyridine derivative which is investigated, the result is expressed as a percentage of sublimed product relatively to the quantity being used.

Series [4] is described as follows: polarographic study of the oxidation potential (Example 30). To be noted: acetonitrile, lithium perchlorate; calomel electrode; in V (unit assumed). An excerpt: 261. Polarographic study of the oxidation potential […]
reference electrode: a calomel electrode which contains, as junction liquid, a saturated solution of anhydrous lithium perchlorate working electrode: rotating electrode of vitreous carbon (2500 r.p.m.) counter-electrode: platinum. acetonitrile, having a water content smaller than 0.1% and not presenting any polarographic waves between -2.5 volts and +2.5 volts.
0.1 M solution of lithium perchlorate in acetonitrile, treated and preserved on a molecular screen of 4 A. […]
exploration amplitude: 0 to 2 V exploration speed: 10 mV/sec.

The nature of series [5]: polarographic oxidation potential (Example 31). The conditions noted are these: 0.5 m.mole/liter; methanol/acetic acid; 35° C. As to the method:
platinum counter-electrode and calomel electrode with filling by a saturated aqueous solution of lithium chloride.
The measurements were carried out in the following solvent:
90 parts of an 0.1 M solution of lithium perchlorate in methanol, 10 parts of a 0.1 M solution of perchloric acid in acetic acid. square voltage superimposed with constant pulses of +10 millivolts, initial potential: 500 millivolts, scanning voltage: 1000 millivolts in the anode direction, oxidation at the vitreous carbon electrode (speed of rotation: 2000 r.p.m.)

With `CCCCCCCCCCCCCCCCCCOC(=O)C1=C(C)NC(C)=C(C(=O)OCCCCCCCCCCCCCCCCCC)C1` [L.28599, 2,6-Dimethyl-3,5-dicarbooctadecyloxy-1,4-dihydropyridine], the Migration was < 5 µg/L in series [1] (0.15 pct, 1 month); < 5 µg/L in series [1] (0.15 pct, 2 months); < 5 µg/L in series [1] (0.15 pct, 10 days); < 5 µg/L in series [1] (0.15 pct, 20 days); < 5 µg/L in series [1] (0.30 pct, 1 month); < 5 µg/L in series [1] (0.30 pct, 2 months). Also, the Migration in series [1] (0.30 pct, 10 days) was < 5 µg/L; in series [1] (0.30 pct, 20 days) it was < 5 µg/L; in series [2] (H2O/NaCl (97:3), 0.3, 1 month), < 5 µg/L; in series [2] (H2O/NaCl (97:3), 0.3, 2 months), < 5 µg/L. For the same compound, the “% of sublimed product” value in series [3] is reported as 1.2%.
Regarding `CCCOC(=O)C1=C(C)NC(C)=C(C(=O)OCCC)C1` [L.28509], the “% of sublimed product” value in series [3] is reported as 79.1%.
Consider `Cc1cc(C(C)(C)C)c(O)c(C(C)(C)C)c1` [BHT, Di-tert.-2,6-butyl-4-methyl phenol, reference compound], for which the Oxidation potential is recorded as 1.11 ± 0.02 in series [4] and 1163 millivolts in series [5].
In the case of `CCCCCCCCCCCCOC(=O)C1=C(C)NC(C)=C(C(=O)OCCCCCCCCCCCC)C1` [L.28507, 2,6-Dimethyl-3,5-dicarbododecyloxy-1,4-dihydropyridine], the Migration in series [1] (0.15 pct, 1 month) is < 5 µg/L; in series [1] (0.15 pct, 2 months), < 5 µg/L; in series [1] (0.15 pct, 10 days), < 5 µg/L; in series [1] (0.15 pct, 20 days) it was < 5 µg/L; in series [1] (0.30 pct, 1 month), < 5 µg/L; in series [1] (0.30 pct, 2 months) it was < 5 µg/L. For the same compound, the Migration in series [1] (0.30 pct, 10 days) was < 5 µg/L; in series [1] (0.30 pct, 20 days), < 5 µg/L; in series [2] (H2O/NaCl (97:3), 0.3, 1 month) it was < 5 µg/L; in series [2] (H2O/NaCl (97:3), 0.3, 2 months), < 5 µg/L; in series [2] (Heptane, 0.3 pcr, after 36 h) it was 120 µg/L; in series [2] (Heptane, 0.3 pcr, after 84 h), 150 µg/L. Also, the Migration in series [2] (Water/C2H5OH (50:50), 0.3, 1 month) is 50 µg/L; in series [2] (Water/C2H5OH (85:15), 0.3, 1 month), < 5 µg/L; in series [2] (Water/C2H5OH (85:15), 0.3, 2 months), < 5 µg/L; in series [2] (Water/CH3COOH (50:50), 0.3, 1 month) it was 25 µg/L; in series [2] (Water/CH3COOH (90:10), 0.3, 1 month), < 5 µg/L; in series [2] (Water/CH3COOH (90:10), 0.3, 2 months), < 5 µg/L. The Migration in series [2] (Water/CH3COOH (97:3), 0.3, 1 month) is < 5 µg/L; in series [2] (Water/CH3COOH (97:3), 0.3, 2 months), < 5 µg/L; in series [2] (Water/NaCl/CH3COOH (98,5:0,5:1), 0.3, 1 month) it was < 5 µg/L; in series [2] (Water/NaCl/CH3COOH (98,5:0,5:1), 0.3, 2 months), < 5 µg/L; in series [2] (Water/Sacchrose (90:10), 0.3, 1 month), < 5 µg/L; in series [2] (Water/Sacchrose (90:10), 0.3, 2 months) it was < 5 µg/L. The Migration was < 5 µg/L in series [2] (Water/citric acid (98:2), pH 5, 0.3, 1 month) and < 5 µg/L in series [2] (Water/citric acid (98:2), pH 5, 0.3, 2 months). Moreover, the “% of sublimed product” value in series [3] is 1.7%. This compound also registered an Oxidation potential in series [5] of 783 millivolts.
Turning to `CCCCCCCCCCCCCCCCCCCCCCOC(=O)C1=C(C)NC(C)=C(C(=O)OCCCCCCCCCCCCCCCCCCCCCC)C1` [L.28601], in series [3], the “% of sublimed product” value is given as 0.4%.
As to `CCCCCCCC/C=C\CCCCCCCCOC(=O)C1=C(C)NC(C)=C(C(=O)OCCCCCCCC/C=C\CCCCCCCC)C1` [L.28602], the Oxidation potential in series [5] is 808 millivolts.
In the case of `CC1=C(C(=O)OC(C)C)CC(C(=O)OC(C)C)=C(C)N1` [L.28506], the “% of sublimed product” value in series [3] was 98.1%.
For `CCOC(=O)C1=C(C)NC(C)=C(C(=O)OCC)C1` [L.28501, 2,6-Dimethyl-3,5-dicarboethoxy-1,4-dihydropyridine], the Migration in series [1] (0.15 pct, 1 month) stood at 100 µg/L; in series [1] (0.15 pct, 2 months), 100 µg/L; in series [1] (0.15 pct, 10 days), 20 µg/L; in series [1] (0.15 pct, 20 days), 50 µg/L; in series [1] (0.30 pct, 1 month), 150 µg/L; in series [1] (0.30 pct, 2 months), 150 µg/L. Further, the Migration in series [1] (0.30 pct, 10 days) is 90 µg/L; in series [1] (0.30 pct, 20 days), 120 µg/L; in series [2] (H2O/NaCl (97:3), 0.3, 1 month) it was 120 µg/L; in series [2] (H2O/NaCl (97:3), 0.3, 2 months), 150 µg/L. The “% of sublimed product” value in series [3] is on record as 82.9%. The same compound returned an Oxidation potential in series [4] of 0.73 ± 0.01.
Take `Oc1ccc(O)cc1` [Hydroquinone]: in series [4], the Oxidation potential was found to be 0.83 ± 0.01.
As for `CCCCCCCCCCCCCCOC(=O)C1=C(C)NC(C)=C(C(=O)OCCCCCCCCCCCCCC)C1` [L.28590, 2,6-Dimethyl-3,5-dicarbotetradecyloxy-1,4-dihydropyridine], the Migration in series [1] (0.15 pct, 1 month) is < 5 µg/L; in series [1] (0.15 pct, 2 months), < 5 µg/L; in series [1] (0.15 pct, 10 days) it was < 5 µg/L; in series [1] (0.15 pct, 20 days), < 5 µg/L; in series [1] (0.30 pct, 1 month), < 5 µg/L; in series [1] (0.30 pct, 2 months), < 5 µg/L. Besides, the Migration in series [1] (0.30 pct, 10 days) is < 5 µg/L; in series [1] (0.30 pct, 20 days), < 5 µg/L; in series [2] (H2O/NaCl (97:3), 0.3, 1 month), < 5 µg/L; in series [2] (H2O/NaCl (97:3), 0.3, 2 months) it was < 5 µg/L. Moreover, the “% of sublimed product” value in series [3] is reported as 0.1%. This compound had an Oxidation potential in series [5] of 732 millivolts.
Turning to `CCCCOC(=O)C1=C(C)NC(C)=C(C(=O)OCCCC)C1` [L.28552, 2,6-Dimethyl-3,5-dicarbobutoxy-1,4-dihydropyridine], the Migration in series [1] (0.15 pct, 1 month) was 90 µg/L; in series [1] (0.15 pct, 2 months) it was 100 µg/L; in series [1] (0.15 pct, 10 days), 15 µg/L; in series [1] (0.15 pct, 20 days), 40 µg/L; in series [1] (0.30 pct, 1 month), 130 µg/L; in series [1] (0.30 pct, 2 months) it was 130 µg/L. The Migration was 80 µg/L in series [1] (0.30 pct, 10 days); 120 µg/L in series [1] (0.30 pct, 20 days); 80 µg/L in series [2] (H2O/NaCl (97:3), 0.3, 1 month); 100 µg/L in series [2] (H2O/NaCl (97:3), 0.3, 2 months). Also, the “% of sublimed product” value in series [3] worked out at 39.2%.
On to `CCCCCCCCCCOC(=O)C1=C(C)NC(C)=C(C(=O)OCCCCCCCCCC)C1` [L.28591], for which the “% of sublimed product” value in series [3] was determined as 1.7%.
In the case of `c1ccc(-c2cc3ccccc3[nH]2)cc1` [2-phenyl indole, reference compound], the Migration in series [1] (0.30 pct, 1 month, listed as Control) was 100 µg/L and 110 µg/L and 120 µg/L; in series [1] (0.30 pct, 2 months, listed as Control), 100 µg/L and 110 µg/L and 130 µg/L; in series [1] (0.30 pct, 10 days, listed as Control), 75 µg/L and 70 µg/L and 80 µg/L; in series [1] (0.30 pct, 20 days, listed as Control), 90 µg/L and 100 µg/L; in series [2] (H2O/NaCl (97:3), 0.3, 1 month), 90 µg/L; in series [2] (H2O/NaCl (97:3), 0.3, 2 months), 140 µg/L. The “% of sublimed product” value in series [3] worked out at 62%. In addition, the sublimation in series [3] is reported as 62%.
In turn, `COc1ccc(O)cc1` [4-Methoxy phenol] registered an Oxidation potential in series [4] of 0.89 ± 0.01.
As to `CCCCCCCCOC(=O)C1=C(C)NC(C)=C(C(=O)OCCCCCCCC)C1` [L.28502], in series [3], the “% of sublimed product” value is reported as 7.2% and the sublimation is recorded as 7%.
